How the values were obtained:
[1] = target: Fibroblast growth factor receptor 1 (Homo sapiens, UniProt P11362); assay: Inhibition of FGFR-1 (unknown origin) by ELISA
[2] = target: Platelet-derived growth factor receptor beta (Homo sapiens, UniProt P09619); assay: Inhibition of PDGFR-beta (unknown origin) by ELISA
[3] = Cytotoxicity against human HFB4 cells after 48 hrs by SRB assay; assay type: cell-based
[4] = system: A498; assay: Antiproliferative activity against human A498 cells after 48 hrs by SRB assay; assay type: functional, cell-based; details: A498, 48 h
[5] = system: A549; assay: cells; details: Homo sapiens, A549, 48 h
Description: Antiproliferative activity against human A549 cells after 48 hrs by SRB assay

[6] = system: HepG2; assay: Antiproliferative activity against human HepG2 cells after 48 hrs by SRB assay; assay type: functional, cell-based; details: HepG2, 48 h
[7] = target: Vascular endothelial growth factor receptor 2 (Homo sapiens, UniProt P35968)
Sequence of Vascular endothelial growth factor receptor 2 (P35968 whole entry): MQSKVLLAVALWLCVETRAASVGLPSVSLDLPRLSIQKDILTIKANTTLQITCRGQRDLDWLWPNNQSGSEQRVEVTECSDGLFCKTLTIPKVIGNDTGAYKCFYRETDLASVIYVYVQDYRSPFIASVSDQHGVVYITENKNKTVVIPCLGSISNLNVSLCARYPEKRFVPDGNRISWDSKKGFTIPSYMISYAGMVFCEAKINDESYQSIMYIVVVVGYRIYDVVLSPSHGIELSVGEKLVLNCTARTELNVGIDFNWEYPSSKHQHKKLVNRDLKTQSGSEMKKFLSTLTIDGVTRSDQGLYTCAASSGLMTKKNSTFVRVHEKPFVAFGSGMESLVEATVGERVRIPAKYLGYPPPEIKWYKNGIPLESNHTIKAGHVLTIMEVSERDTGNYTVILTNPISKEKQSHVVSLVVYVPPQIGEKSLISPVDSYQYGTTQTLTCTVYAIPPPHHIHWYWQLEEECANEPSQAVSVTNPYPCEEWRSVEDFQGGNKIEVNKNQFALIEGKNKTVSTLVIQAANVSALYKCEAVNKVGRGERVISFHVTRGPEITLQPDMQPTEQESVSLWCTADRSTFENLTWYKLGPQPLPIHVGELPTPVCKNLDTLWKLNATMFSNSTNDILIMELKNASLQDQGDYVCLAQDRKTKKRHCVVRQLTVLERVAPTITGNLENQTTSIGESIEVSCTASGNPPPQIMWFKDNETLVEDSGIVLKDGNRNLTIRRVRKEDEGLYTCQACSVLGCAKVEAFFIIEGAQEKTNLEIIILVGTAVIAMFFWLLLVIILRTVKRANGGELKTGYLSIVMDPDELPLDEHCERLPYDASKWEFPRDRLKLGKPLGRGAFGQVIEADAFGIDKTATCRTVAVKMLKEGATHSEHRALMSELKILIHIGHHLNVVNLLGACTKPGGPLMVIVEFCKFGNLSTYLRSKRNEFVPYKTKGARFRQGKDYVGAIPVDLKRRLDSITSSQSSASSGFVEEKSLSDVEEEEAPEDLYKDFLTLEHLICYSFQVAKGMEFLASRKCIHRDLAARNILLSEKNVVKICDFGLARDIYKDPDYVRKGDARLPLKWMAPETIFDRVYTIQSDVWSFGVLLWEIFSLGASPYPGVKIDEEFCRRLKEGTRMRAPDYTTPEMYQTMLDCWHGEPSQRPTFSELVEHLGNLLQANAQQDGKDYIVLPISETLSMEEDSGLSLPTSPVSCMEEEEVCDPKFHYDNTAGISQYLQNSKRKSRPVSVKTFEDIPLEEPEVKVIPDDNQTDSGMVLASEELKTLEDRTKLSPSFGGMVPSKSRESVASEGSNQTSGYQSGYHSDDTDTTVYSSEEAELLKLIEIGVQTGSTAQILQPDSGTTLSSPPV
Description: Inhibition of VEGFR-2 (unknown origin) using biotinylated poly-GluTyr (4:1) as substrate after 5 mins by ELISA

[8] = system: MCF7; assay: cells; details: Homo sapiens, MCF7, 48 h
Description: Antiproliferative activity against human MCF7 cells after 48 hrs by SRB assay

Sequence of Fibroblast growth factor receptor 1 (P11362 whole entry): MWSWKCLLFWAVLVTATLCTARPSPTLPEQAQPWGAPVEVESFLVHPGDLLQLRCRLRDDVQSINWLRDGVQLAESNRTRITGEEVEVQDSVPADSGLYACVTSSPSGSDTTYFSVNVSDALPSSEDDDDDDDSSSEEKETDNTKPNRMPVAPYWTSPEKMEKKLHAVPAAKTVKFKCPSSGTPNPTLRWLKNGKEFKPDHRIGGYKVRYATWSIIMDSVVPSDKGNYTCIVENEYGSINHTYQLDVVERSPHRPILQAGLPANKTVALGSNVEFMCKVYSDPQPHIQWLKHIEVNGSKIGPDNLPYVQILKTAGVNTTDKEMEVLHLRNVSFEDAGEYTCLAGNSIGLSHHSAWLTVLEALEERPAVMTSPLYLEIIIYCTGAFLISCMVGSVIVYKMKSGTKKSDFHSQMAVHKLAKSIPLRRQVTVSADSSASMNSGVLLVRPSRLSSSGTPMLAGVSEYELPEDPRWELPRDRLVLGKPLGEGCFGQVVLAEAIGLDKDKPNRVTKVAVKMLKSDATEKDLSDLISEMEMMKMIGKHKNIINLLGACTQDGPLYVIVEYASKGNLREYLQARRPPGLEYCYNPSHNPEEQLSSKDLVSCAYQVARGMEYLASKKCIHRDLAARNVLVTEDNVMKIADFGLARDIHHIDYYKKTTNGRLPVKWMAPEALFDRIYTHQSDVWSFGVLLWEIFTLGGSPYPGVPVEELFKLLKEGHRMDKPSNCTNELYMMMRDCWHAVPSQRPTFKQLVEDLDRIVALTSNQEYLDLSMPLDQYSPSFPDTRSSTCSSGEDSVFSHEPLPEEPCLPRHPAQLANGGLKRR
Sequence of Platelet-derived growth factor receptor beta (P09619 whole entry): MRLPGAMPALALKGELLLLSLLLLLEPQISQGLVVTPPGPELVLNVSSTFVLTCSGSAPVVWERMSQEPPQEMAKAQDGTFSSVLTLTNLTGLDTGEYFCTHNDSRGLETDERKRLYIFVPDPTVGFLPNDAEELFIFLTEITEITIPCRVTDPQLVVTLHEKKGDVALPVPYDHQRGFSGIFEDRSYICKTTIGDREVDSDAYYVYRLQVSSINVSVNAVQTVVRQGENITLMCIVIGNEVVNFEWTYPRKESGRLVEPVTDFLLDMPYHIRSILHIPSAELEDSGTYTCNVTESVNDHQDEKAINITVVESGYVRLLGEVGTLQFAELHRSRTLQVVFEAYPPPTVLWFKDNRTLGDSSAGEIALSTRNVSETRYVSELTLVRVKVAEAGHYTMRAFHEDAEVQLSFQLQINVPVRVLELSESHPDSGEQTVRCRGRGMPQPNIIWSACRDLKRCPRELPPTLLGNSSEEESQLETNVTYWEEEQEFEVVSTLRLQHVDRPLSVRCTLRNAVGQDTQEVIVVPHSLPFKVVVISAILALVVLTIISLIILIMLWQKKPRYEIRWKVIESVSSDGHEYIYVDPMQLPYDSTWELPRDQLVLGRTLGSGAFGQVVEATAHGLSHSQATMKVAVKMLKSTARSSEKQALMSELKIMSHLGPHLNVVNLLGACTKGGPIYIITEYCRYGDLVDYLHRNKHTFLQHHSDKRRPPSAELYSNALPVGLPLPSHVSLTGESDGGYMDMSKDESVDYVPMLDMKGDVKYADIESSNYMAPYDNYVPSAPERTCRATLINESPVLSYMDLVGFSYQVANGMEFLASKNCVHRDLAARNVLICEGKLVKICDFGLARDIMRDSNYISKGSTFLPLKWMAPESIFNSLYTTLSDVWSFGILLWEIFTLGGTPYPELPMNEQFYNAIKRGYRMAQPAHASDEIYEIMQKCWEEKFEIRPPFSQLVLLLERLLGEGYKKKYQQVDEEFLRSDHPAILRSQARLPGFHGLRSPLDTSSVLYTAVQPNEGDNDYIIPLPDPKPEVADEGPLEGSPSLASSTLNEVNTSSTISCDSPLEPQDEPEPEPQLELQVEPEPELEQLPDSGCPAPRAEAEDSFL

| Compound | IC50 [1] [nM] | IC50 [2] [nM] | further results |
| --- | --- | --- | --- |
| COc1ccc2c(c1)/C(=N/NC(=O)c1ccc(NC(=O)Nc3ccc(Cl)c(C(F)(F)F)c3)cc1)C(=O)N2 | 230 | 100 | – |
| COc1cccc(NC(=O)Nc2ccc(C(=O)N/N=C3\C(=O)Nc4ccc(OC)cc43)cc2)c1 | 300 | 110 | IC50 [3]: 45800 nM; IC50 ([4]; read-out: IC50): 780 nM; IC50 [5]: > 100000 nM; IC50 [6]: 2930 nM; IC50 [7]: 270 nM; IC50 [8]: 27000 nM |
| O=C(Nc1ccc(C(=O)N/N=C2\C(=O)Nc3ccc(Br)cc32)cc1)Nc1ccc(Cl)c(C(F)(F)F)c1 | 310 | 450 | – |
| COc1ccc(C(=O)Nc2ccc(C(=O)N/N=C3\C(=O)Nc4ccc(Br)cc43)cc2)cc1 | 380 | 230 | – |
| COc1ccc(C(=O)Nc2ccc(C(=O)N/N=C3\C(=O)Nc4ccc(OC)cc43)cc2)cc1 | 460 | 90 | – |
| COc1ccc2c(c1)/C(=N/NC(=O)c1ccc(NC(=O)c3ccc(Cl)cc3)cc1)C(=O)N2 | 390 | 2010 | – |
| COc1cccc(NC(=O)Nc2ccc(C(=O)N/N=C3\C(=O)Nc4ccc(Br)cc43)cc2)c1 | 480 | 1590 | – |
| COc1ccc2c(c1)/C(=N/NC(=O)c1ccc(NC(=O)Nc3ccc(Cl)cc3)cc1)C(=O)N2 | 390 | 1820 | – |
| COc1ccc(NC(=O)Nc2ccc(C(=O)N/N=C3\C(=O)Nc4ccc(OC)cc43)cc2)cc1 | 170 | 330 | – |
| COc1cccc(NC(=O)Nc2ccc(C(=O)N/N=C3\C(=O)Nc4ccc(Cl)cc43)cc2)c1 | 420 | 1290 | – |
| COc1ccc(NC(=O)Nc2ccc(C(=O)N/N=C3\C(=O)Nc4ccc(Br)cc43)cc2)cc1 | 610 | 3790 | – |
| COc1ccc2c(c1)/C(=N/NC(=O)c1ccc(NC(=O)Nc3ccccc3)cc1)C(=O)N2 | 280 | 3640 | – |
| COc1cccc2c1C(=O)c1c(O)c3c(c(O)c1C2=O)C[C@@](O)(C(=O)CO)C[C@@H]3O[C@H]1C[C@H](N)[C@H](O)[C@H](C)O1 [DOXORUBICIN] | – | – | IC50 [3]: 80300 nM; IC50 [4]: 1100 nM; IC50 [5]: 4360 nM; IC50 [6]: 4100 nM |
| CNC(=O)c1cc(Oc2ccc(NC(=O)Nc3ccc(Cl)c(C(F)(F)F)c3)cc2)ccn1 [SORAFENIB] | – | – | IC50 [3]: 85000 nM; IC50 [5]: 6110 nM; IC50 [6]: 5230 nM; IC50 [8]: 4270 nM |

Reference: ChEMBL document CHEMBL4330065, “Type IIA - Type IIB protein tyrosine kinase inhibitors hybridization as an efficient approach for potent multikinase inhibitor development: Design, synthesis, anti-proliferative activity, multikinase inhibitory activity and molecular modeling of novel indolinone-based ureides and amides” (Eur J Med Chem, 2019)
